Measured values taken from the supplement of paper PMC11208160.

Experiment: recombinant UMI read abundance after kanamycin selection (control-corrected) (log10(CPM+1)); higher = more efficient recombination; extreme values may be limits of the assay; sequences stand for … in AGTGCAGAGAAAATCGGCCAGTTTTCTCTGCCTGCAGTCCGCATGCCGTGGGACCCCTTGGGTTCTAACCTGTTGCCTAGATTTATGCAGCGGACTGCCTTTCTCCCAAAGTGATAAACCGG…AGGTTGGTTTCACT; site = the 11-nt donor
Protocol: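 Pooled E. coli donor-specificity screen for the IS621 bridge recombinase. Each library member carries a reprogrammed 11-nt donor and a full-length LE bridge RNA expressed in cis from the natural promoter, with a paired donor-binding loop (8-nt LDG + 4-nt RDG) and a target-binding loop fixed to T5. It is co-electroporated with a T5 target plasmid; recombinase is induced with 0.07 mM IPTG and recombinants are selected on kanamycin. UMIs are counted as CPM, averaged over two biological replicates and corrected by the unselected control. Molecule = full bridge RNA written as DNA, built from the T5 scaffold: LDG = donor specificity nt 1-8, RDG = reverse complement of nt 8-11.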
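Note: IS621 bridge recombinase in Escherichia coli cells against a fixed T5 target plasmid.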

Row | Sequence | recombinant UMI read abundance (log10)
1 | AAAACTGCATGGACCGGTTTTCCCGGTAATCCGTATTTGAA (site AAAACTGCTTT) | 0.637
2 | AAAAGATCATGGACCGGTTTTCCCGGTAATCCGTATTTGGA (site AAAAGATCTTC) | 1.94
3 | AAAAGATCATGGACCGGTTTTCCCGGTAATCCGTATTTGGC (site AAAAGATCTGC) | 2.65
4 | AAACACGCATGGACCGGTTTTCCCGGTAATCCGTATTTGGG (site AAACACGCTCC) | 0.227
5 | AAACACGCATGGACCGGTTTTCCCGGTAATCCGTATTTGGG (site AACCACGCTCC) | 0.0138
6 | AAACACGCATGGACCGGTTTTCCCGGTAATCCGTATTTGGG (site AAGCACGCTCC) | 0.0101
7 | AAACACGCATGGACCGGTTTTCCCGGTAATCCGTATTTGGG (site AATCACGCTCC) | 0.0344
8 | AAACAGACATGGACCGGTTTTCCCGGTAATCCGTATTTGGA (site AAACAGACTTC) | 0.991
9 | AAACGAACATGGACCGGTTTTCCCGGTAATCCGTATTTGTC (site AAACGAACTGA) | 1.58
10 | AAACGAACATGGACCGGTTTTCCCGGTAATCCGTATTTGTC (site ACACGAACTGA) | 0.524
11 | AAACGAACATGGACCGGTTTTCCCGGTAATCCGTATTTGTC (site AGACGAACTGA) | 0
12 | AAACGAACATGGACCGGTTTTCCCGGTAATCCGTATTTGTC (site ATACGAACTGA) | 0.767
13 | AAACGAGCATGGACCGGTTTTCCCGGTAATCCGTATTTGAG (site AAACGAGCTCT) | 1.78
14 | AAACGTCCATGGACCGGTTTTCCCGGTAATCCGTATTTGAT (site AAACGTCCTAT) | 0.701
15 | AAACGTCCATGGACCGGTTTTCCCGGTAATCCGTATTTGAT (site AACCGTCCTAT) | 0.00727
16 | AAACGTCCATGGACCGGTTTTCCCGGTAATCCGTATTTGAT (site AAGCGTCCTAT) | 0.266
17 | AAACGTCCATGGACCGGTTTTCCCGGTAATCCGTATTTGAT (site AATCGTCCTAT) | 0.0129
18 | AAAGACCCATGGACCGGTTTTCCCGGTAATCCGTATTTGGT (site AAAGACCCTAC) | 1.02
19 | AAAGCGCCATGGACCGGTTTTCCCGGTAATCCGTATTTGTG (site AAAGCGCCTCA) | 0.207
20 | AAAGCGCCATGGACCGGTTTTCCCGGTAATCCGTATTTGTG (site CAAGCGCCTCA) | 0.017
21 | AAAGCGCCATGGACCGGTTTTCCCGGTAATCCGTATTTGTG (site GAAGCGCCTCA) | 0.0199
22 | AAAGCGCCATGGACCGGTTTTCCCGGTAATCCGTATTTGTG (site TAAGCGCCTCA) | 0.019
23 | AAAGGCTCATGGACCGGTTTTCCCGGTAATCCGTATTTGCG (site AAAGGCTCTCG) | 2.61
24 | AAAGTAACATGGACCGGTTTTCCCGGTAATCCGTATTTGCT (site AAAGTAACTAG) | 2.89

Row | Sequence | recombinant UMI read abundance (log10)
25 | AAAGTAACATGGACCGGTTTTCCCGGTAATCCGTATTTGCT (site AACGTAACTAG) | 2.06
26 | AAAGTAACATGGACCGGTTTTCCCGGTAATCCGTATTTGCT (site AAGGTAACTAG) | 1.66
27 | AAAGTAACATGGACCGGTTTTCCCGGTAATCCGTATTTGCT (site AATGTAACTAG) | 2.1
28 | AAAGTATCATGGACCGGTTTTCCCGGTAATCCGTATTTGCA (site AAAGTATCTTG) | 2.86
29 | AAAGTATCATGGACCGGTTTTCCCGGTAATCCGTATTTGCA (site ACAGTATCTTG) | 2.64
30 | AAAGTATCATGGACCGGTTTTCCCGGTAATCCGTATTTGCA (site AGAGTATCTTG) | 2.83
31 | AAAGTATCATGGACCGGTTTTCCCGGTAATCCGTATTTGCA (site ATAGTATCTTG) | 2.62
32 | AAAGTATCATGGACCGGTTTTCCCGGTAATCCGTATTTGCT (site AAAGTATCTAG) | 2.73
33 | AAAGTATCATGGACCGGTTTTCCCGGTAATCCGTATTTGCT (site ACAGTATCTTG) | 0
34 | AAAGTGTCATGGACCGGTTTTCCCGGTAATCCGTATTTGAC (site AAAGTGTCTGT) | 2.37
35 | AAAGTGTCATGGACCGGTTTTCCCGGTAATCCGTATTTGAC (site AACGTGTCTGT) | 0
36 | AAAGTGTCATGGACCGGTTTTCCCGGTAATCCGTATTTGAC (site AAGGTGTCTGT) | 0
37 | AAAGTGTCATGGACCGGTTTTCCCGGTAATCCGTATTTGAC (site AATGTGTCTGT) | 0.497
38 | AAAGTTGCATGGACCGGTTTTCCCGGTAATCCGTATTTGAT (site AAAGTTGCTAT) | 2.62
39 | AAATCTACATGGACCGGTTTTCCCGGTAATCCGTATTTGTG (site AAATCTACTCA) | 0.209
40 | AAATCTACATGGACCGGTTTTCCCGGTAATCCGTATTTGTG (site ACATCTACTCA) | 0.0169
41 | AAATCTACATGGACCGGTTTTCCCGGTAATCCGTATTTGTG (site AGATCTACTCA) | 0.0155
42 | AAATCTACATGGACCGGTTTTCCCGGTAATCCGTATTTGTG (site ATATCTACTCA) | 0.0108
43 | AACAAGACATGGACCGGTTTTCCCGGTAATCCGTATTTGAC (site AACAAGACTGT) | 2.21
44 | AACAGTCCATGGACCGGTTTTCCCGGTAATCCGTATTTGAT (site AACAGTCCTAT) | 0.504
45 | AACAGTCCATGGACCGGTTTTCCCGGTAATCCGTATTTGAT (site AACCGTCCTAT) | 0.00935
46 | AACAGTCCATGGACCGGTTTTCCCGGTAATCCGTATTTGAT (site AACGGTCCTAT) | 0.0119
47 | AACAGTCCATGGACCGGTTTTCCCGGTAATCCGTATTTGAT (site AACTGTCCTAT) | 0
48 | AACCAAACATGGACCGGTTTTCCCGGTAATCCGTATTTGAG (site AACCAAACTCT) | 1.48

Row | Sequence | recombinant UMI read abundance (log10)
49 | AACCAAGCATGGACCGGTTTTCCCGGTAATCCGTATTTGAG (site AACCAAGCTCT) | 1.8
50 | AACCAAGCATGGACCGGTTTTCCCGGTAATCCGTATTTGAG (site ACCCAAGCTCT) | 0.33
51 | AACCAAGCATGGACCGGTTTTCCCGGTAATCCGTATTTGAG (site AGCCAAGCTCT) | 0.217
52 | AACCAAGCATGGACCGGTTTTCCCGGTAATCCGTATTTGAG (site ATCCAAGCTCT) | 0.642
53 | AACCACGCATGGACCGGTTTTCCCGGTAATCCGTATTTGGG (site AAACACGCTCC) | 0.0131
54 | AACCACGCATGGACCGGTTTTCCCGGTAATCCGTATTTGGG (site AACCACGCTCC) | 0.0319
55 | AACCACGCATGGACCGGTTTTCCCGGTAATCCGTATTTGGG (site AAGCACGCTCC) | 0
56 | AACCACGCATGGACCGGTTTTCCCGGTAATCCGTATTTGGG (site AATCACGCTCC) | 0.00485
57 | AACCGTACATGGACCGGTTTTCCCGGTAATCCGTATTTGAT (site AACCGTACTAT) | 1
58 | AACCGTACATGGACCGGTTTTCCCGGTAATCCGTATTTGAT (site AACCGTCCTAT) | 0.0158
59 | AACCGTACATGGACCGGTTTTCCCGGTAATCCGTATTTGAT (site AACCGTGCTAT) | 0.108
60 | AACCGTACATGGACCGGTTTTCCCGGTAATCCGTATTTGAT (site AACCGTTCTAT) | 0
61 | AACCGTCCATGGACCGGTTTTCCCGGTAATCCGTATTTGAC (site AACCGTCCTAT) | 0
62 | AACCGTCCATGGACCGGTTTTCCCGGTAATCCGTATTTGAC (site AACCGTCCTCT) | 0.0147
63 | AACCGTCCATGGACCGGTTTTCCCGGTAATCCGTATTTGAC (site AACCGTCCTGT) | 0.786
64 | AACCGTCCATGGACCGGTTTTCCCGGTAATCCGTATTTGAC (site AACCGTCCTTT) | 0.477
65 | AACCGTCCATGGACCGGTTTTCCCGGTAATCCGTATTTGAG (site AACCGTCCTAT) | 0.0112
66 | AACCGTCCATGGACCGGTTTTCCCGGTAATCCGTATTTGAG (site AACCGTCCTCT) | 0.0226
67 | AACCGTCCATGGACCGGTTTTCCCGGTAATCCGTATTTGAG (site AACCGTCCTGT) | 0
68 | AACCGTCCATGGACCGGTTTTCCCGGTAATCCGTATTTGAG (site AACCGTCCTTT) | 0.00366
69 | AACCGTCCATGGACCGGTTTTCCCGGTAATCCGTATTTGAT (site AAACGTCCTAT) | 0.00674
70 | AACCGTCCATGGACCGGTTTTCCCGGTAATCCGTATTTGAT (site AACAGTCCTAT) | 0.0027
71 | AACCGTCCATGGACCGGTTTTCCCGGTAATCCGTATTTGAT (site AACCATCCTAT) | 0.62
72 | AACCGTCCATGGACCGGTTTTCCCGGTAATCCGTATTTGAT (site AACCCTCCTAT) | 0.00675
